Reference: ChEMBL document CHEMBL1139415, “Highly functionalized 7-azaindoles as selective PPAR gamma modulators” (Bioorg Med Chem Lett, 2008)

Tests used:
[1] = target: Polyunsaturated fatty acid 5-lipoxygenase (Homo sapiens, UniProt P09917); experiment: Inhibition of 5-Lipoxygenase
[2] = Inhibition of PDE2
[3] = Inhibition of PDE3
[4] = target: Prostaglandin D2 receptor (Homo sapiens, UniProt Q13258); experiment: Inhibition of prostanoid DP receptor
[5] = target: Prostaglandin E2 receptor EP3 subtype (Homo sapiens, UniProt P43115); experiment: Inhibition of prostanoid EP3 receptor
Sequence of Prostaglandin E2 receptor EP3 subtype (P43115 whole entry): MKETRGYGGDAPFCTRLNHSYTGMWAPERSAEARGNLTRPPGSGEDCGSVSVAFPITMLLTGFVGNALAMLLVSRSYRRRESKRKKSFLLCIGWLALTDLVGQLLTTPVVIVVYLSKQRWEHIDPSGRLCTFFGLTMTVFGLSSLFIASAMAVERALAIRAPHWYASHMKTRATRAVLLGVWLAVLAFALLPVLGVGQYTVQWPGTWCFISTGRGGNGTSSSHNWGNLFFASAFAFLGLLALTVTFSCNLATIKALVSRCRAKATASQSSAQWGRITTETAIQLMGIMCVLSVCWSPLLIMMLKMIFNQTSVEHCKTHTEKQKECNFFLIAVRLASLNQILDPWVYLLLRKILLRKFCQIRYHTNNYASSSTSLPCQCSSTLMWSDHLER

[6] = target: Prostaglandin E2 receptor EP4 subtype (Homo sapiens, UniProt P35408); experiment: Inhibition of prostanoid EP4 receptor
[7] = target: Prostaglandin F2-alpha receptor (Homo sapiens, UniProt P43088); experiment: Inhibition of prostanoid FP receptor
Prostacyclin receptor = Prostacyclin receptor (Homo sapiens, UniProt P43119); experiment: Inhibition of prostanoid IP receptor
Sequence of Prostacyclin receptor (P43119 whole entry): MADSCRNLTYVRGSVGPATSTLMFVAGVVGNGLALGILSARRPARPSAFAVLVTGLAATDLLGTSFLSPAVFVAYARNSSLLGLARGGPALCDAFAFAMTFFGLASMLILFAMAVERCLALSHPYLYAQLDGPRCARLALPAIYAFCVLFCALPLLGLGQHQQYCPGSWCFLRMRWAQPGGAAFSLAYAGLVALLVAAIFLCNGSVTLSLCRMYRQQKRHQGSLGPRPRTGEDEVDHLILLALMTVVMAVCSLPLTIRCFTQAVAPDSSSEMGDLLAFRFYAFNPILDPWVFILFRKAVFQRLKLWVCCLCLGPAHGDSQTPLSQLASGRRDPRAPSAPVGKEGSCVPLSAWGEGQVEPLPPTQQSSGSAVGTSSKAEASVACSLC

[8] = target: Alpha-2A adrenergic receptor (Homo sapiens, UniProt P08913); experiment: Displacement of radioligand from adrenergic alpha2A receptor
[9] = target: Alpha-2B adrenergic receptor (Homo sapiens, UniProt P18089); experiment: Displacement of radioligand from adrenergic alpha2B receptor
[10] = target: Beta-1 adrenergic receptor (Homo sapiens, UniProt P08588); experiment: Displacement of radioligand from adrenergic beta-1 receptor
[11] = target: Beta-3 adrenergic receptor (Homo sapiens, UniProt P13945); experiment: Displacement of radioligand from adrenergic beta3 receptor
[12] = target: Sodium-dependent noradrenaline transporter (Homo sapiens, UniProt P23975); experiment: Displacement of radioligand from NET
D(1A) dopamine receptor = D(1A) dopamine receptor (Homo sapiens, UniProt P21728); experiment: Displacement of radioligand from dopamine D1 receptor
Sequence of D(1A) dopamine receptor (P21728 whole entry): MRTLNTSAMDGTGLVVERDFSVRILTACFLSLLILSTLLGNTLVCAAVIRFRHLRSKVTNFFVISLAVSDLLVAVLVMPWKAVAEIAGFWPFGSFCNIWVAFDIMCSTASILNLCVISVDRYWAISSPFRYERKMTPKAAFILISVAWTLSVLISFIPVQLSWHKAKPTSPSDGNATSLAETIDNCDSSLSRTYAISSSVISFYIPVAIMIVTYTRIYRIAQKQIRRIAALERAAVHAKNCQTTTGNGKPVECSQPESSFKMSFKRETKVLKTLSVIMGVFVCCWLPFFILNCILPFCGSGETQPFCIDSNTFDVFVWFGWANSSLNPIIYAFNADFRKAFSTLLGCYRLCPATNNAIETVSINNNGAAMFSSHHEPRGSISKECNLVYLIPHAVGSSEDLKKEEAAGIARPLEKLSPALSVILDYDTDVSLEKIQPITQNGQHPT

D(2) dopamine receptor = D(2) dopamine receptor (Homo sapiens, UniProt P14416); experiment: Displacement of radioligand from dopamine D2S receptor
Sequence of D(2) dopamine receptor (P14416 whole entry): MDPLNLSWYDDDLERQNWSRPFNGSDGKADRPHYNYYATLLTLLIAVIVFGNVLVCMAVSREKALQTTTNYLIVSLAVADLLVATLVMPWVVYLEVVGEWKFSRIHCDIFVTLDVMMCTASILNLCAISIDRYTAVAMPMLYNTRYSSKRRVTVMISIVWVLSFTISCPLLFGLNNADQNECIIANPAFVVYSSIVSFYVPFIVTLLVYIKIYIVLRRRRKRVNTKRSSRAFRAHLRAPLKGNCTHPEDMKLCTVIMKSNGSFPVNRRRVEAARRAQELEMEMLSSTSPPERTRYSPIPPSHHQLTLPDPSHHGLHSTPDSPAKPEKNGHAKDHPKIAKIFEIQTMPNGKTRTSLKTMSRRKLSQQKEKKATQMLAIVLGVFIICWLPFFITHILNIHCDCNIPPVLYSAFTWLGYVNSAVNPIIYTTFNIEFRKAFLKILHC

D(3) dopamine receptor = D(3) dopamine receptor (Homo sapiens, UniProt P35462); experiment: Displacement of radioligand from dopamine D3 receptor
[13] = target: Sodium-dependent dopamine transporter (Homo sapiens, UniProt Q01959); experiment: Displacement of radioligand from DAT
Sequence of Sodium-dependent dopamine transporter (Q01959 whole entry): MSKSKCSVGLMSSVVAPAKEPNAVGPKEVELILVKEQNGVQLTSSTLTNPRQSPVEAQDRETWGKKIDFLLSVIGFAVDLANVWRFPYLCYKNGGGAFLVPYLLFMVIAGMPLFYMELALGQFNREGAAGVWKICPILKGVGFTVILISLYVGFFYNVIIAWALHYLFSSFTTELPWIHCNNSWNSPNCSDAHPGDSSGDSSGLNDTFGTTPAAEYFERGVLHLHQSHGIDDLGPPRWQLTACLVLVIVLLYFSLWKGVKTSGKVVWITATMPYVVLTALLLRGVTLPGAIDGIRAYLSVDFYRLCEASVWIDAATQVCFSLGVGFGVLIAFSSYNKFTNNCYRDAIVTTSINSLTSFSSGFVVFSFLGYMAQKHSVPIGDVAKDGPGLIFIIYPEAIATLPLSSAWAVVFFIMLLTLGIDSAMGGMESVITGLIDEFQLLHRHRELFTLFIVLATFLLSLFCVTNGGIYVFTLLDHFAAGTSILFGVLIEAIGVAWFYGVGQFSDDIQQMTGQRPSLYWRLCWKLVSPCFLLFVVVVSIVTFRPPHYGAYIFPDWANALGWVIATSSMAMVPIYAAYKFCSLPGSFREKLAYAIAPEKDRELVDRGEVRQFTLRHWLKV

[14] = target: Muscarinic acetylcholine receptor M3 (Homo sapiens, UniProt P20309); experiment: Displacement of radioligand from muscarinic M3 receptor
Sequence of Muscarinic acetylcholine receptor M3 (P20309 whole entry): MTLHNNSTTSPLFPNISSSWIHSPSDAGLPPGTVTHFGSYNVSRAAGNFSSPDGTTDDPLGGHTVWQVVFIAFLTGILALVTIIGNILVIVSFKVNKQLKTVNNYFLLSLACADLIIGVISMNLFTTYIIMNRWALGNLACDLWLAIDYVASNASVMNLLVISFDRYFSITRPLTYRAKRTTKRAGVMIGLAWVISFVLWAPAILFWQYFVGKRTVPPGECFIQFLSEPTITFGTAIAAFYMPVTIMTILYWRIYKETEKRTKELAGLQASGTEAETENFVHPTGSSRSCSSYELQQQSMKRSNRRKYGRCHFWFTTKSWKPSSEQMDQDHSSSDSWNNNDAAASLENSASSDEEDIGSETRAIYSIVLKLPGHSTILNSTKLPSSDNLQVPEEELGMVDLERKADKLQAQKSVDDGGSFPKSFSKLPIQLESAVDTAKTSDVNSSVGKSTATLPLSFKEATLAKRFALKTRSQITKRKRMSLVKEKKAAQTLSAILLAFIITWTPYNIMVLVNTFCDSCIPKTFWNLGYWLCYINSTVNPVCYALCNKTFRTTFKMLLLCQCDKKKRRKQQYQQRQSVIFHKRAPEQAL

[15] = target: Muscarinic acetylcholine receptor M4 (Homo sapiens, UniProt P08173); experiment: Displacement of radioligand from muscarinic M4 receptor
[16] = target: Delta-type opioid receptor (Homo sapiens, UniProt P41143); experiment: Displacement of radioligand from delta opioid receptor
Sequence of Delta-type opioid receptor (P41143 whole entry): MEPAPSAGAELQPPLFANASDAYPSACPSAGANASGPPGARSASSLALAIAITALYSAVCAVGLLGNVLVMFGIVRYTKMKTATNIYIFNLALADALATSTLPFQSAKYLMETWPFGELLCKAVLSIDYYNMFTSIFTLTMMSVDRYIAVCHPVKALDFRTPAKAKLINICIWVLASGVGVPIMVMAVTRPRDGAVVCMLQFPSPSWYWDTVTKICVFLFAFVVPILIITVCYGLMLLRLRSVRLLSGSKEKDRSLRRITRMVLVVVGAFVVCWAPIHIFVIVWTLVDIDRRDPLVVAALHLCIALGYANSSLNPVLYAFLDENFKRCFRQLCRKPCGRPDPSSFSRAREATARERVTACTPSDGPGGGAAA

[17] = target: Kappa-type opioid receptor (Homo sapiens, UniProt P41145); experiment: Displacement of radioligand from kappa opioid receptor
Mu-type opioid receptor = Mu-type opioid receptor (Homo sapiens, UniProt P35372); experiment: Displacement of radioligand from mu opioid receptor
[18] = target: 5-hydroxytryptamine receptor 2B (Homo sapiens, UniProt P41595); experiment: Displacement of radioligand from 5HT2B receptor
Sequence of 5-hydroxytryptamine receptor 2B (P41595 whole entry): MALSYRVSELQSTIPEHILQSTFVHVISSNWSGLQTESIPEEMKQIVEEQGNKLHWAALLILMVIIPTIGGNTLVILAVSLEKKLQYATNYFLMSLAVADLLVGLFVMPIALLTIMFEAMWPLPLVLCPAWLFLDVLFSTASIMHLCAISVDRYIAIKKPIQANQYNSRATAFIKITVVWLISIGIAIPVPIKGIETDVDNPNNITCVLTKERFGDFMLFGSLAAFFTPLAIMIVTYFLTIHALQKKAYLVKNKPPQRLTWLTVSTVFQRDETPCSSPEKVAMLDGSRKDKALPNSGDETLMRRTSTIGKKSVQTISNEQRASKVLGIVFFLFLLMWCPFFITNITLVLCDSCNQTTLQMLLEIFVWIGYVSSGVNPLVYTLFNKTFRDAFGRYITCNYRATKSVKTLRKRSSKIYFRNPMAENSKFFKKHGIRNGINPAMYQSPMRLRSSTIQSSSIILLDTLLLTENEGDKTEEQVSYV

[19] = target: Sodium-dependent serotonin transporter (Homo sapiens, UniProt P31645); experiment: Displacement of radioligand from SERT
Substance-K receptor = Substance-K receptor (Homo sapiens, UniProt P21452); experiment: Displacement of radioligand from tachykinin NK2 receptor
Thromboxane A2 receptor = Thromboxane A2 receptor (Homo sapiens, UniProt P21731); experiment: Displacement of radioligand from TXA2 receptor
Sequence of Thromboxane A2 receptor (P21731 whole entry): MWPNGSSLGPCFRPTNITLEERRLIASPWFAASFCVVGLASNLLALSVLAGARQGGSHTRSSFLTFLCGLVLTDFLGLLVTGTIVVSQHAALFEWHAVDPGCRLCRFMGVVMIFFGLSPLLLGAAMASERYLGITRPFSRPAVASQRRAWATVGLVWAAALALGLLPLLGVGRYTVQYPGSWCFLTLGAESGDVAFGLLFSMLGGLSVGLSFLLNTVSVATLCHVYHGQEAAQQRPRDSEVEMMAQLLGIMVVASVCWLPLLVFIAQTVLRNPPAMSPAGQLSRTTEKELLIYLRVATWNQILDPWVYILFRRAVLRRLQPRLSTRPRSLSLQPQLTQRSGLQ

Sequence of Polyunsaturated fatty acid 5-lipoxygenase (P09917 whole entry): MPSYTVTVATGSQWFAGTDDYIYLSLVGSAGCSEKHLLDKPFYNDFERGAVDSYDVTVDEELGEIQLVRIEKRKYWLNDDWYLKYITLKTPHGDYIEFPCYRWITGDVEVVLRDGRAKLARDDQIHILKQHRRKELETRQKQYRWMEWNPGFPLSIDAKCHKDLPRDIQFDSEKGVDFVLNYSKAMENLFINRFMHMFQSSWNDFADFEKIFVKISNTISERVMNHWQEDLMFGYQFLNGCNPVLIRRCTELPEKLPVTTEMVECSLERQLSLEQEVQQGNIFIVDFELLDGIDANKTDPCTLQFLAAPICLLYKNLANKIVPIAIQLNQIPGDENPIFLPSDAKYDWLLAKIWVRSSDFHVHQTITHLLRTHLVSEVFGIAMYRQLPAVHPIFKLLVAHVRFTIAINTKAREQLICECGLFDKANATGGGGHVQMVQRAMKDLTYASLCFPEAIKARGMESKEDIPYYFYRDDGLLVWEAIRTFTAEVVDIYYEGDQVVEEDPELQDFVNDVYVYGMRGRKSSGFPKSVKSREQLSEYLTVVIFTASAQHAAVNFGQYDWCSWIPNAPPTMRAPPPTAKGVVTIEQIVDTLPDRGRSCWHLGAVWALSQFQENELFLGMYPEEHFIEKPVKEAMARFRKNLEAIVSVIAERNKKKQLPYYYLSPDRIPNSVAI

With `Cc1c(C(=O)c2ccc(Cl)cc2)c2ccc(OC(F)(F)F)cc2n1Cc1cccc(O[C@H](C)C(=O)O)c1` the IC50 [1] was 1640 nM, the IC50 [2] was 29100 nM and the IC50 [3] was 22500 nM. For the same molecule, the IC50 [4] was 8450 nM, the IC50 [5] was 1220 nM and the IC50 [6] was 3700 nM. The IC50 [7] was 2730 nM, the IC50 (Prostacyclin receptor) was 6340 nM and the IC50 [8] was 1650 nM. It also gave an IC50 [9] of 770 nM, an IC50 [10] of 4070 nM and an IC50 [11] of 4860 nM. It also gave an IC50 [12] of 2160 nM, an IC50 (D(1A) dopamine receptor) of 1530 nM and an IC50 (D(2) dopamine receptor) of 3550 nM. The IC50 (D(3) dopamine receptor) was 837 nM, the IC50 [13] was 3410 nM and the IC50 [14] was 1560 nM. It also gave an IC50 [15] of 1340 nM, an IC50 [16] of 1690 nM and an IC50 [17] of 3480 nM. The IC50 (Mu-type opioid receptor) was 1860 nM, the IC50 [18] was 1140 nM and the IC50 [19] was 970 nM. It also gave an IC50 (Substance-K receptor) of 530 nM and an IC50 (Thromboxane A2 receptor) of 2030 nM.
